Columns and labels:
crabgrass = assay: Test B pre/postemergence crabgrass; type: in vivo, Digitaria sanguinalis
Outline: (§1)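 Response is a visual 0-to-10 score relative to untreated plants, where 0 means no effect and 10 means complete control, taken twelve to sixteen days after application. Treatments went onto soil at planting and onto foliage of 1- to 4-leaf plants, using a surfactant-containing non-phytotoxic solvent.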

purple nutsedge = assay: Test B pre/postemergence purple nutsedge; type: in vivo, Cyperus rotundus
Outline: as §1

sugar beet = assay: Test B pre/postemergence sugar beet; type: in vivo, Beta vulgaris
Outline: as §1

bedstraw = assay: Test B pre/postemergence bedstraw; type: in vivo, Galium aparine
Outline: as §1

duck salad = assay: Test B flood test duck salad; type: in vivo, Heteranthera limosa
Outline: (§2)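 Each value is a visual injury score relative to controls, with 10 meaning complete control and 0 no effect. Evaluation took place twelve to sixteen days after the 2-leaf-stage plants were treated and kept in the greenhouse.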

rice = assay: Test B flood test rice; type: in vivo, Oryza sativa
Outline: as §2

wheat = assay: Test B pre/postemergence wheat; type: in vivo, Triticum aestivum
Outline: as §1

corn = assay: Test B pre/postemergence corn; type: in vivo, Zea mays
Outline: as §1

cocklebur = assay: Test B pre/postemergence cocklebur; type: in vivo, Xanthium strumarium
Outline: as §1

blackgrass = assay: Test B pre/postemergence blackgrass; type: in vivo, Alopecurus myosuroides
Outline: as §1

bamyardgrass = assay: Test B flood test barnyardgrass; type: in vivo, Echinochloa crus-galli
Outline: as §2

surinam grass = assay: Test B pre/postemergence surinam grass; type: in vivo, Brachiaria decumbens
Outline: as §1

wild oat = assay: Test B pre/postemergence wild oat; type: in vivo, Avena fatua
Outline: as §1

velvetleaf = assay: Test B pre/postemergence velvetleaf; type: in vivo, Abutilon theophrasti
Outline: as §1

smallflower flatsedge = assay: Test B flood test smallflower flatsedge; type: in vivo, Cyperus difformis
Outline: as §2

soybean = assay: Test B pre/postemergence soybean; type: in vivo, Glycine max
Outline: as §1

[1] = Postemergence, Rate 31 g/ha, visual rating, scale 0 to 10 (0 no effect, 10 complete control)
[2] = Preemergence, Rate 31 g/ha, visual rating, scale 0 to 10 (0 no effect, 10 complete control)
[3] = Preemergence, Rate 62 g/ha, scale of 0 to 10 where 0 is no effect and 10 is complete control
[4] = Preemergence, Rate 250 g/ha, scale of 0 to 10 where 0 is no effect and 10 is complete control
[5] = Rate 62 g/ha, Postemergence, scale 0 to 10 (0 no effect, 10 complete control)
[6] = Rate 125 g/ha, Postemergence, scale of 0 to 10 where 0 is no effect and 10 is complete control
[7] = Rate 125 g/ha, Preemergence, scale of 0 to 10 where 0 is no effect and 10 is complete control
[8] = Rate 250 g/ha, Postemergence, scale of 0 to 10 where 0 is no effect and 10 is complete control
[9] = Rate 31 g/ha, Pre-emergence section (flood test species), scale 0 to 10
[10] = Rate 62 g/ha, headed Pre-emergence (flood test species), scale 0 to 10 (0 no effect, 10 complete control)
[11] = Rate 125 g/ha, Pre-emergence, flood test species, scale 0 to 10 where 0 is no effect and 10 is complete control
[12] = Rate 250 g/ha, Pre-emergence, flood-test species, scale 0 to 10, 0 is no effect, 10 is complete control

CC(C)N(C(=O)n1oc(=O)n(CCCCF)c1=O)c1ccc(F)cc1 [Compound 289]
Crabgrass plant response rating (crabgrass; [1]): 0
Crabgrass plant response rating (crabgrass; [2]): 1
Crabgrass plant response rating (crabgrass; [3]): 2
Crabgrass plant response rating (crabgrass; [4]): 4
Crabgrass plant response rating (crabgrass; [5]): 3
Crabgrass plant response rating (crabgrass; [6]): 5
Crabgrass plant response rating (crabgrass; [7]): 3
Plant response rating, Crabgrass (crabgrass; [8]): 9
Nutsedge plant response rating (purple nutsedge; [1]): 0
Nutsedge plant response rating (purple nutsedge; [2]): 0
Nutsedge plant response rating (purple nutsedge; [3]): 0
Nutsedge plant response rating (purple nutsedge; [4]): 0
Nutsedge plant response rating (purple nutsedge; [5]): 0
Nutsedge plant response rating (purple nutsedge; [6]): 0
Nutsedge plant response rating (purple nutsedge; [7]): 0
Plant response rating, Nutsedge (purple nutsedge; [8]): 0
Sugarbeets plant response rating (sugar beet; [1]): 0
Sugarbeets plant response rating (sugar beet; [2]): 0
Sugarbeets plant response rating (sugar beet; [3]): 2
Sugarbeets plant response rating (sugar beet; [4]): 8
Sugarbeets plant response rating (sugar beet; [5]): 0
Sugarbeets plant response rating (sugar beet; [6]): 0
Sugarbeets plant response rating (sugar beet; [7]): 6
Plant response rating, Sugarbeets (sugar beet; [8]): 0
Bedstraw plant response rating (bedstraw; [1]): 0
Bedstraw plant response rating (bedstraw; [2]): 0
Bedstraw plant response rating (bedstraw; [3]): 0
Bedstraw plant response rating (bedstraw; [4]): 7
Bedstraw plant response rating (bedstraw; [5]): 0
Bedstraw plant response rating (bedstraw; [6]): 3
Bedstraw plant response rating (bedstraw; [7]): 4
Plant response rating, Bedstraw (bedstraw; [8]): 8
Ducksalad plant response rating (duck salad; [9]): 0
Ducksalad plant response rating (duck salad; [10]): 0
Ducksalad plant response rating (duck salad; [11]): 0
Ducksalad plant response rating (duck salad; [12]): 0
Rice plant response rating (rice; [9]): 0
Rice plant response rating (rice; [10]): 0
Rice plant response rating (rice; [11]): 0
Rice plant response rating (rice; [12]): 1
Wheat plant response rating (wheat; [1]): 0
Wheat plant response rating (wheat; [2]): 0
Wheat plant response rating (wheat; [3]): 0
Wheat plant response rating (wheat; [4]): 2
Wheat plant response rating (wheat; [5]): 2
Wheat plant response rating (wheat; [6]): 5
Wheat plant response rating (wheat; [7]): 2
Plant response rating, Wheat (wheat; [8]): 7
Corn plant response rating (corn; [1]): 0
Corn plant response rating (corn; [2]): 0
Corn plant response rating (corn; [3]): 0
Corn plant response rating (corn; [4]): 2
Corn plant response rating (corn; [5]): 0
Corn plant response rating (corn; [6]): 0
Corn plant response rating (corn; [7]): 0
Plant response rating, Corn (corn; [8]): 0
Cocklebur plant response rating (cocklebur; [1]): 0
Cocklebur plant response rating (cocklebur; [2]): 0
Cocklebur plant response rating (cocklebur; [3]): 0
Cocklebur plant response rating (cocklebur; [4]): 0
Cocklebur plant response rating (cocklebur; [5]): 0
Cocklebur plant response rating (cocklebur; [6]): 1
Cocklebur plant response rating (cocklebur; [7]): 0
Plant response rating, Cocklebur (cocklebur; [8]): 2
Blackgrass plant response rating (blackgrass; [1]): 2
Blackgrass plant response rating (blackgrass; [2]): 6
Blackgrass plant response rating (blackgrass; [3]): 8
Blackgrass plant response rating (blackgrass; [4]): 9
Blackgrass plant response rating (blackgrass; [5]): 5
Blackgrass plant response rating (blackgrass; [6]): 9
Blackgrass plant response rating (blackgrass; [7]): 9
Plant response rating, Blackgrass (blackgrass; [8]): 9
Barnyardgrass plant response rating (bamyardgrass; [9]): 0
Barnyardgrass plant response rating (bamyardgrass; [10]): 0
Barnyardgrass plant response rating (bamyardgrass; [11]): 0
Barnyardgrass plant response rating (bamyardgrass; [12]): 3
B. signalgrass plant response rating (surinam grass; [1]): 0
B. signalgrass plant response rating (surinam grass; [2]): 2
B. signalgrass plant response rating (surinam grass; [3]): 7
B. signalgrass plant response rating (surinam grass; [4]): 8
B. signalgrass plant response rating (surinam grass; [5]): 0
B. signalgrass plant response rating (surinam grass; [6]): 3
B. signalgrass plant response rating (surinam grass; [7]): 7
Plant response rating, B. signalgrass (surinam grass; [8]): 3
Wild oats plant response rating (wild oat; [1]): 0
Wild oats plant response rating (wild oat; [2]): 0
Wild oats plant response rating (wild oat; [3]): 1
Wild oats plant response rating (wild oat; [4]): 8
Wild oats plant response rating (wild oat; [5]): 0
Wild oats plant response rating (wild oat; [6]): 3
Plant response rating, Wild oats (wild oat; [8]): 3
Velvetleaf plant response rating (velvetleaf; [1]): 0
Velvetleaf plant response rating (velvetleaf; [2]): 0
Velvetleaf plant response rating (velvetleaf; [3]): 3
Velvetleaf plant response rating (velvetleaf; [4]): 7
Velvetleaf plant response rating (velvetleaf; [5]): 0
Velvetleaf plant response rating (velvetleaf; [6]): 0
Velvetleaf plant response rating (velvetleaf; [7]): 6
Plant response rating, Velvetleaf (velvetleaf; [8]): 3
S. Flatsedge plant response rating (smallflower flatsedge; [9]): 0
S. Flatsedge plant response rating (smallflower flatsedge; [10]): 0
S. Flatsedge plant response rating (smallflower flatsedge; [11]): 0
S. Flatsedge plant response rating (smallflower flatsedge; [12]): 0
Soybean plant response rating (soybean; [1]): 0
Soybean plant response rating (soybean; [2]): 0
Soybean plant response rating (soybean; [3]): 0
Soybean plant response rating (soybean; [4]): 0
Soybean plant response rating (soybean; [5]): 2
Soybean plant response rating (soybean; [6]): 3
Soybean plant response rating (soybean; [7]): 0
Plant response rating, Soybean (soybean; [8]): 4

— patent publication US6737383B1, “Herbicidal oxadiazolidines” (priority 1999, dated 2004)
